Test results as given in patent publication US20110020239A1, “METHODS FOR IN VIVO IMAGING OF CELLS” (The Johns Hopkins University, priority 2007, published 2011).

How the values were obtained:
human islets [1] = test: Insulin secretion assay (static incubation, C-peptide ELISA); assay type: cell-based; parameters: glucose responsiveness stimulation index: dose or concentration left out as unconfirmed; conditions: for difference in glucose responsiveness stimulation index between PFOB and PFPE: PFOB vs PFPE, p>0.05; for glucose responsiveness stimulation index: increase of insulin secretion
Protocol: A static incubation assay was used to assess the insulin secretion response of labeled human islets. One hundred islets were placed in a culture insert (membrane pore diameter 12 μm; Millicell PCF) in six-well plates. The insulin secretion was measured after 1.5 hrs in a solution of a specific glucose level. […] Aliquots of the medium were stored at −80° C. The C-peptide content of the samples was determined with an enzyme-linked, immunosorbent assay (ultrasensitive human c-peptide ELISA, Alpco Diagnostics); results (in ng/ml) were expressed as the means of three independent experiments. The C-peptide secretion was also assessed at 7 days and at 14 days following islet encapsulation, using 8 mM glucose and 90 min incubation.

[2] = 19F NMR of PFCs (aqueous solubility); assay type: physicochemical; conditions: 19F NMR experiments
Text: In the ^19F NMR spectrum of PFOB, eight resonance peaks are observable, one for each carbon position.

human islets [3] = test: Microfluorometric viability assay (Newport Green / propidium iodide) of labeled islets; assay type: cell-based
Protocol: Fresh human cadaveric islets were provided by the Joslin Diabetes Research Center (Boston, Mass.) under an approved protocol of the National Islet Cell Resource Program. Islets were cultured in RPMI 1640 medium (Gibco), supplemented with 10% fetal calf serum and 1% penicillin/streptomycin/L-glutamine (all reagents from Sigma Co) in a humidified CO2 incubator at 37° C. and a 5% CO2 atmosphere. Islets were cultured in tissue culture plates and culture media was replaced every 3 days. For all Feridex labeled islets, islets were initially labeled with procedure described below and then were cultured in contrast free medium. In the case of PFC labeled islets, the respective PFC was supplemented to each change of culture medium throughout the entire culture period.
Viability of labeled human islets was determined using a microfluorometric assay. Cells were incubated for 30 minutes with […] Newport Green (NG, Sigma, St. Louis, Mo.), which stains viable cell cytoplasm green. Following NG staining, islets were incubated for 10 minutes with 5 mM propidium iodide (PI, Sigma, St. Louis, Mo.), which emits red fluorescence when bound to nucleic acids. NG was excited by using a 500 nm laser line and emitted fluorescence was detected using a 535 nm long-pass filter. PI was excited by using a 514 nm laser line and emitted fluorescence was detected using a 550 nm long-pass filter. NG stained cells (green) were counted as viable, while PI stained cells (red) were counted as dead. In cases of dual staining, the cells were considered dead.

dendritic cells = conditions: Ahrens, Flores et al. 2005; cited from earlier work

| SMILES | difference in glucose responsiveness stimulation index between PFOB and PFPE (human islets [1]) | glucose responsiveness stimulation index (human islets [1]) | glucose responsiveness of labeled vs unlabeled islets (human islets [1]; insulin secretion assays) | aqueous solubility [2] | islet viability compared to both Feridex labeled and unlabeled islets (human islets [3]) | percentage survival of labeled islets compared to unlabeled control islets (human islets [3]; all days / all time points (days 1, 7, 14)) | effect on dendritic cell proliferation, function, or maturation (dendritic cells) | percentage survival of labeled islets compared to unlabeled control islets (human islets [3]; days 7 and 14, p<0.05) |
| --- | --- | --- | --- | --- | --- | --- | --- | --- |
| FC(F)(F)C(F)(F)C(F)(F)C(F)(F)C(F)(F)C(F)(F)C(F)(F)C(F)(F)Br [PFOB, perfluorooctylbromide] | no significant statistical difference | 2.19 | no significant difference | below the limit of detection | significant increase in viability | statistically significant increase |  |  |
| FC1(F)OC(F)(F)C(F)(F)OC(F)(F)C(F)(F)OC(F)(F)C(F)(F)OC(F)(F)C(F)(F)OC1(F)F [PFPE, perfluoro-15-crown-5 ether] | no significant statistical difference | 2.07 |  |  |  |  | no effect | significant statistical differences |
